In brackets after ≈: the same amount, converted by molar mass. Like-named read-outs stand apart in the source and are kept apart here.
Tests used:
[1] = Stability in acidic environment at 25° C. (half-life of initial microbiological activity); assay type: physicochemical; conditions: aqueous solution, read-out: t 1/2 (converted)
Experimental: Stability in acidic environnment at 25° C. of the novel
Note: t 1/2 represents the time for reducing to one half the initial powe
of the antibiotic determined by microbiological method through diffusion
on a plate using the test stock Microccocus luteus (Sarcina lutea) ATCC

[2] = system: Acholeplasma laidlawii ATCC 23206 LRP 204; assay: Bacteriostatic power in solid medium (MIC); assay type: cell-based; conditions: Acholeplasma laidlawii, ATCC23206, read-out: Minimum inhibiting concentration
Method in brief: (§1)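 Bacteriostatic activity was measured as the minimum inhibiting concentration across a panel of bacterial stocks that spanned aerobic and anaerobic, Gram-positive and Gram-negative organisms.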

Bacillus subtilis LRP 25 = assay: Bacteriostatic power in solid medium (MIC); assay type: cell-based; conditions: Bacillus subtilis, LRP25, read-out: Minimum inhibiting concentration
Method in brief: as §1

[3] = system: Bacteroides fragilis ATCC 23745 LRP 205; assay: Bacteriostatic power in solid medium (MIC); assay type: cell-based; conditions: Bacteroides fragilis, ATCC23745, read-out: Minimum inhibiting concentration
Method in brief: as §1

[4] = system: Corynebacterium diphteriae LRP 24; assay: Bacteriostatic power in solid medium (MIC); assay type: cell-based; conditions: Corynebacterium, LRP24, read-out: Minimum inhibiting concentration
Method in brief: as §1

Escherichia coli LRP 50 = assay: Bacteriostatic power in solid medium (MIC); assay type: cell-based; conditions: Escherichia coli, LRP50, read-out: Minimum inhibiting concentration
Method in brief: as §1

[5] = system: Fusobacteriumnecrophroum ATCC 27852 LRP 210; assay: Bacteriostatic power in solid medium (MIC); assay type: cell-based; conditions: read-out: Minimum inhibiting concentration
Method in brief: as §1

[6] = system: Haemophilus influenzae ATCC 19418 LRP 213; assay: Bacteriostatic power in solid medium (MIC); assay type: cell-based; conditions: Haemophilus influenzae, ATCC19418, read-out: Minimum inhibiting concentration
Method in brief: as §1

[7] = system: Klelsiella pneumoniae LRP 54; assay: Bacteriostatic power in solid medium (MIC); assay type: cell-based; conditions: read-out: Minimum inhibiting concentration
Method in brief: as §1

[8] = system: Micrococcus luteus ATCC 15957 LRP 193; assay: Bacteriostatic power in solid medium (MIC); assay type: cell-based; conditions: Micrococcus luteus, ATCC15957, read-out: Minimum inhibiting concentration
Method in brief: as §1

[9] = system: Micrococcus luteus ATCC 9341 LRP 6; assay: Bacteriostatic power in solid medium (MIC); assay type: cell-based; conditions: Micrococcus luteus, ATCC9341, read-out: Minimum inhibiting concentration
Method in brief: as §1

[10] = system: Mycoplasma hominis I ATCC 14027 LRP 211; assay: Bacteriostatic power in solid medium (MIC); assay type: cell-based; conditions: Metamycoplasma hominis, ATCC14027, read-out: Minimum inhibiting concentration
Method in brief: as §1

[11] = system: Neisseria gonorrhoeae ATCC 19424 LRP 214; assay: Bacteriostatic power in solid medium (MIC); assay type: cell-based; conditions: Neisseria gonorrhoeae, ATCC19424, read-out: Minimum inhibiting concentration
Method in brief: as §1

[12] = system: Proteus vulgaris ATCC 6380 LRP 13; assay: Bacteriostatic power in solid medium (MIC); assay type: cell-based; conditions: Proteus vulgaris, ATCC6380, read-out: Minimum inhibiting concentration
Method in brief: as §1

[13] = system: Pseudomonas aeruginosa LRP 9; assay: Bacteriostatic power in solid medium (MIC); assay type: cell-based; conditions: Pseudomonas aeruginosa, LRP9, read-out: Minimum inhibiting concentration
Method in brief: as §1

Shigella sonnei LRP 5 = assay: Bacteriostatic power in solid medium (MIC); assay type: cell-based; conditions: LRP5, read-out: Minimum inhibiting concentration
Method in brief: as §1

[14] = system: Staphylococcus aureus ATCC 14154 LRP 78; assay: Bacteriostatic power in solid medium (MIC); assay type: cell-based; conditions: Staphylococcus aureus, ATCC14154, read-out: Minimum inhibiting concentration
Method in brief: as §1

[15] = system: Staphylococcus aureus ATCC 6538P LRP 14; assay: Bacteriostatic power in solid medium (MIC); assay type: cell-based; conditions: Staphylococcus aureus, ATCC6538P, read-out: Minimum inhibiting concentration
Method in brief: as §1

[16] = system: Staphylococcus aureus ATCC 6538P LRP 39; assay: Bacteriostatic power in solid medium (MIC); assay type: cell-based; conditions: Staphylococcus aureus, ATCC6538P, read-out: Minimum inhibiting concentration
Method in brief: as §1

[17] = system: Streptococcus faecalis LRP 7; assay: Bacteriostatic power in solid medium (MIC); assay type: cell-based; conditions: Enterococcus faecalis, LRP7, read-out: Minimum inhibiting concentration
Method in brief: as §1

[18] = system: Streptococcus faecalis subsp. zymogenes ATCC 12958 LRP 61; assay: Bacteriostatic power in solid medium (MIC); assay type: cell-based; conditions: Enterococcus faecalis, ATCC12958, read-out: Minimum inhibiting concentration
Method in brief: as §1

[19] = system: Streptococcus pneumoniae ATCC 6303 LRP 35; assay: Bacteriostatic power in solid medium (MIC); assay type: cell-based; conditions: Streptococcus pneumoniae, ATCC6303, read-out: Minimum inhibiting concentration
Method in brief: as §1

[20] = system: Streptococcus pneumoniae ATCC 6303 LRP 52; assay: Bacteriostatic power in solid medium (MIC); assay type: cell-based; conditions: Streptococcus pneumoniae, ATCC6303, read-out: Minimum inhibiting concentration
Method in brief: as §1

[21] = system: Streptococcus pneumoniae ATCC 6303 LRP 53; assay: Bacteriostatic power in solid medium (MIC); assay type: cell-based; conditions: Streptococcus pneumoniae, ATCC6303, read-out: Minimum inhibiting concentration
Method in brief: as §1

[22] = system: Streptococcus pyogenes ATCC 8668 LRP 197; assay: Bacteriostatic power in solid medium (MIC); assay type: cell-based; conditions: Streptococcus pyogenes, ATCC8668, read-out: Minimum inhibiting concentration
Method in brief: as §1

[23] = system: Streptococcus pyogenes ATCC 8668 LRP 34; assay: Bacteriostatic power in solid medium (MIC); assay type: cell-based; conditions: Streptococcus pyogenes, ATCC8668, read-out: Minimum inhibiting concentration
Method in brief: as §1

[24] = system: Corynebacterium diphteriae LRP 24; assay: Bacteriostatic power in liquid medium (MIC); assay type: cell-based; conditions: Corynebacterium, LRP24, read-out: Minimum inhibiting concentration
Method in brief: as §1

[25] = system: Streptococcus faecalis subs. zymogenes ATCC 12958 LRP 61; assay: Bacteriostatic power in liquid medium (MIC); assay type: cell-based; conditions: Enterococcus faecalis, ATCC12958, read-out: Minimum inhibiting concentration
Method in brief: as §1

[26] = system: Streptococcus pneumoniae ATCC 6303 LRP 35; assay: Bacteriostatic power in liquid medium (MIC); assay type: cell-based; conditions: Streptococcus pneumoniae, ATCC6303, read-out: Minimum inhibiting concentration
Method in brief: as §1

[27] = system: Streptococcus pyogenes ATCC 8668 LRP 34; assay: Bacteriostatic power in liquid medium (MIC); assay type: cell-based; conditions: Streptococcus pyogenes, ATCC8668, read-out: Minimum inhibiting concentration
Method in brief: as §1

[28] = system: Corynebacterium diphteriae LRP 24; assay: Minimum bactericidal concentration (MBC); assay type: cell-based
Excerpt: (§2) the bacterial power, expressed as the minimum bactericidal power (MBC) against some Gram positive aerobic stocks (table 5).

[29] = system: Staphylococcus aureus ATCC 6538 P LRP 39; assay: Minimum bactericidal concentration (MBC); assay type: cell-based
Excerpt: as §2

[30] = system: Streptococcus faecalis subs. zymogenes LRP 61; assay: Minimum bactericidal concentration (MBC); assay type: cell-based
Excerpt: as §2

[31] = system: Streptococcus pneumoniae ATCC 6303 LRP 35; assay: Minimum bactericidal concentration (MBC); assay type: cell-based
Excerpt: as §2

[32] = system: Streptococcus pyogenes ATCC 8668 LRP 34; assay: Minimum bactericidal concentration (MBC); assay type: cell-based
Excerpt: as §2

Molecule `CC[C@H]1OC(=O)[C@H](C)[C@@H](O[C@H]2C[C@@](C)(OC)[C@@H](O)[C@H](C)O2)[C@H](C)[C@@H](O[C@@H]2O[C@H](C)C[C@H](N(C)C)[C@H]2O)[C@](C)(O)C[C@](C)(F)C(=O)[C@H](C)[C@@H](O)[C@]1(C)O` [P-80206, (8S)-8-fluoroerythromycin A] has a half-life ([1]; pH 2.0, 25° C.) of 9 h, a half-life ([1]; pH 3.0, 25° C.) of 82.5 h and an MIC [2] of 0.097 µg/mL (≈ 0.129 µM). For the same molecule, the MIC (Bacillus subtilis LRP 25) was 0.049 µg/mL (≈ 0.0652 µM), the MIC [3] was 0.195 µg/mL (≈ 0.259 µM) and the MIC [4] was 0.012 µg/mL (≈ 0.016 µM). For the same molecule, the MIC (Escherichia coli LRP 50) was 12.5 µg/mL (≈ 16.6 µM), the MIC [5] was 1.56 µg/mL (≈ 2.07 µM) and the MIC [6] was 3.12 µg/mL (≈ 4.15 µM). For the same molecule, the MIC [7] was 12.5 µg/mL (≈ 16.6 µM), the MIC [8] was 25 µg/mL (≈ 33.2 µM) and the MIC [9] was 0.006 µg/mL (≈ 0.00798 µM). It also gave an MIC [10] of 25 µg/mL (≈ 33.2 µM), an MIC [11] of 0.049 µg/mL (≈ 0.0652 µM) and an MIC [12] of 25 µg/mL (≈ 33.2 µM). The MIC [13] was 25 µg/mL (≈ 33.2 µM), the MIC (Shigella sonnei LRP 5) was 25 µg/mL (≈ 33.2 µM) and the MIC [14] was 25 µg/mL (≈ 33.2 µM). For the same molecule, the MIC [15] was 0.097 µg/mL (≈ 0.129 µM), the MIC [16] was 0.097 µg/mL (≈ 0.129 µM) and the MIC [17] was 0.195 µg/mL (≈ 0.259 µM). The MIC [18] was 0.195 µg/mL (≈ 0.259 µM), the MIC [19] was 0.024 µg/mL (≈ 0.0319 µM) and the MIC [20] was 0.024 µg/mL (≈ 0.0319 µM). The MIC [21] was 0.024 µg/mL (≈ 0.0319 µM), the MIC [22] was 0.012 µg/mL (≈ 0.016 µM) and the MIC [23] was 0.012 µg/mL (≈ 0.016 µM). The MIC [24] was 0.012 µg/mL (≈ 0.016 µM), the MIC [25] was 0.39 µg/mL (≈ 0.519 µM) and the MIC [26] was 0.049 µg/mL (≈ 0.0652 µM). It also gave an MIC [27] of 0.097 µg/mL (≈ 0.129 µM), an MBC/MIC [28] of 8 and an MBC ([28]; Corynebacterium, LRP24, read-out: Minimum bactericidal concentration (MBC)) of 0.097 µg/mL (≈ 0.129 µM). For the same molecule, the MBC/MIC [29] was 16, the MBC ([29]; Staphylococcus aureus, ATCC6538, read-out: Minimum bactericidal concentration (MBC)) was 3.12 µg/mL (≈ 4.15 µM) and the MBC/MIC [30] was 16. For the same molecule, the MBC ([30]; Enterococcus faecalis, read-out: Minimum bactericidal concentration (MBC)) was 6.25 µg/mL (≈ 8.31 µM), the MBC/MIC [31] was 4 and the MBC ([31]; Streptococcus pneumoniae, ATCC6303, read-out: Minimum bactericidal concentration (MBC)) was 0.195 µg/mL (≈ 0.259 µM). The MBC/MIC [32] was 8 and the MBC ([32]; Streptococcus pyogenes, ATCC8668, read-out: Minimum bactericidal concentration (MBC)) was 0.78 µg/mL (≈ 1.04 µM).

Source: US4439426A, “Semisynthetic macrolidic antibiotics, intermediate compounds for their preparation and related pharmaceutical compositions containing them” (priority 1981, dated 1984)
